Reference: US20260297129A1, “PEPTIDES AS SELECTIVE IL-23 RECEPTOR INHIBITORS” (SANOFI, priority 2023, published 2026)
Values after ≈ are worked out from the molar mass of the structure shown. Like-named read-outs stand apart in the source and are kept apart here. Numbered stars: 1 amine (or outer) side, 2 acyl side, 3 side chain; on linkers, the order of the positions; unused ones are H or OH. Bridge positions count the residues as written; N and C are the ends. Square brackets hold non-standard residues; d marks the D form. Peptide text beside a SMILES is read from it. * marks the point of attachment. Lys(Me,(CH2)4NMe(CH2)4CO) = CN(CCCCC(=O)[*:3])CCCCN(C)CCCC[C@H](N[*:1])C(=O)[*:2]; X3 = Cc1cccc2c(C[C@H](N[*:1])C(=O)[*:2])cn(C)c12; Trp(7-Me) = Cc1cccc2c(C[C@H](N)C(=O)O)c[nH]c12; NH(2-(3-pyridyl)ethyl) = c1cncc(CCN*)c1; 2Nal = N[C@@H](Cc1ccc2ccccc2c1)C(=O)O; 3Pal = N[C@@H](Cc1cccnc1)C(=O)O; Aun = NCCCCCCCCCCC(=O)O; Thp = NC1(C(=O)O)CCOCC1; Me2NCH2CH2 = CN(C)CC*; Aib = CC(C)(N)C(=O)O; Sar = CNCC(=O)O

Tests used:
[1] = Solubility of peptide compounds in buffer formulations (Table 5); format: physicochemical; details: target 1 mg/ml
Experimental: Prior to the solubility measurement of a peptide batch, its purity was determined through UHPLC/MS method A.
(§1) For solubility testing the target concentration was 1 mg pure compound/ml. Therefore, solutions from solid samples were prepared in a buffer system at a concentration of 1 mg/mL compound. The solid samples were obtained by drying down aliquots of a freshly prepared dimethyl sulfoxide stock solution using a THERMO SPEEDVAC vacuum centrifuge. The dry down time was 3 hours.
The following buffer systems were applied: • Solubility buffer system A) 50 mM HCl pH 1.2 • Solubility buffer system B) 50 mM phosphate buffer pH 6.5 • Solubility buffer system C) 50 mM phosphate buffer pH 7.4 • UHPLC-UV was performed using analytical method A after 2 hours of gentle agitation from the filtered (0.45 μm filter plates) solutions, which were obtained by 10 mins of centrifugation forced filtration at 1500 RCF (relative centrifugal acceleration).
The solubility was determined by the comparison of the UV peak area of 2 μL-injections of a buffered sample diluted 1:10 with a standard curve of a dimethyl sulfoxide reference sample of known concentration. The different extinction coefficients were taken into account for the calculation.

[2] = Chemical stability (relative purity loss) of peptide compounds in buffer formulations (Table 6); format: physicochemical; details: 2° C. and 37° C.
Experimental: Purity of a peptide batch was determined through UHPLC/MS method A prior to chemical stability measurement.
as §1, with “stability assessment,” for “solubility testing”, “0.5” for “1”, “acetonitrile” for “dimethyl sulfoxide”
The following buffer systems were applied: • Solubility buffer system A): 50 mM HCl pH 1.2+Acetonitrile (3:1). • Solubility buffer system B): 50 mM phosphate buffer pH 6.5+Acetonitrile (3:1). • Solubility buffer system C): 50 mM phosphate buffer pH 7.4+Acetonitrile (3:1). • Prepared solutions were stored for 24 hours at 2° C. and 37° C.
After this time course, the samples were centrifuged for 15 min at 2500 RCF to create a 1:5 dilution of the supernatant. Then 2 μl of the dilution were analyzed with UHPLC-UV applying method A.
The chemical stability was rated through the relative loss of purity calculated by the equation: […]

[3] = Protease stability in simulated gastric fluids (FaSSGF) (Table 7); format: in vitro ADME; details: fassgf with pepsin, 60 min, 37° C., read-out: Remaining percentage of peptide compound, FaSSGF 60 (min)
Experimental: (§2) Studies were carried out in simulated intestinal fluid (SIF) and simulated gastric fluid (SGF) to evaluate gastric stability of the peptide compounds disclosed herein.
For clarification, the term “Pepsin-SGF” refers to a solution of simulated gastric fluid containing pepsin whereas “SGF media” refers to a solution of simulated gastric fluid without pepsin. Pepsin-SGF was prepared by dissolving 320 mg Pepsin (Merck Millipore) in 100 mL SGF media concentrate (PROSENSE).
(§3) Peptide compounds were first dissolved at 1 mM stock concentration in 0.01 HCl (+/−10% of DMSO) and were than diluted further with water to a stock concentration of 20 μM. Final peptide concentration in the incubation was 1 μM.
(§4) To 76 μL of the Pepsin-SGF buffer, 4 μL of the 20 μM peptide stock solution was added and incubated at 37° C. At each timepoint (0, 60, 120 and 240 minutes) the reaction was quenched with addition of 80 μL Ethanol (0,1% HCOOH). The samples were centrifuged for 20 minutes and an aliquot of the supernatant 100 μL were transferred to a LoBind-MTP plate and analyzed by LCMS/MS. The peak area response was calculated at each time point for each test compound. As internal reference, the peak area response of the same test compound at T0 was calculated. The percentage remaining at each timepoint was calculated based on the peak area response ratio of the test compound at T0. Time 0 was set to 100%, and all later timepoints were calculated relative to time 0.
as §4, with “(0.1%” for “(0,1%”

[4] = tested on: IL-23 induced STAT3 signaling (IL-23 receptor) in HEK-Blue IL-23 cells; test: Inhibition of IL-23 induced STAT3 signaling in HEK-Blue IL-23 cells, SEAP reporter (Table 9); format: cell-based; details: human IL23 0.25 ng/ml, overnight, read-out: Inhibition of IL-23 induced pSTAT3 (IC50 nM)
Text: HEK-Blue™ IL-23 cells (INVIVOGEN) are designed for the detection of bioactive human (hIL-23) and murine IL-23 (mIL-23) by monitoring the activation of the STAT3 pathway. Binding of IL-23 to its receptor on the surface of HEK-Blue™ IL-23 cells triggers a signaling cascade leading to the activation of STAT3 and the subsequent production of secreted embryonic alkaline phosphatase (SEAP). This can be readily assessed using QUANTI-Blue™ Solution, a SEAP detection reagent.
HEK-Blue™ IL-23 cells were cultured as described by INVIVOGEN.
On the first day of assay 10 μL of the HEK-BLUE IL23 cell suspension (final concentration: 10,000 cells/well) and 10 μl of serially diluted peptides solutions were dispensed into a 384-well assay plate. After pre-incubation of the reaction mixtures at 37° C./5% CO2/95% humidity for 60 minutes, 10 μl of the humanIL23 cytokine (final concentration: 0.25 ng/ml) was added to each well for the STAT3 signaling activation. The plate was incubated overnight at 37° C./5% CO2/95% humidity.
On the second day 20 μl per well of QUANTI-BLUE detection solution (prepared according to the manufacture instruction) was dispensed into a new 384-well plate and followed by the transfer of 5 μl supernatant of the overnight incubated cell/sample mixtures. After incubation of 45 min at room temperature signals were measured with PHERASTAR (BMG) at OD 620-655 nm.
Dose response data were fitted with XLfit.

[5] = Protease stability in simulated intestinal fluids (FaSSIF) (Table 7); format: in vitro ADME; details: fassif with pancreatin, 37° C.; for remaining at 1 h, 1 µM: 60 min, read-out: Remaining percentage of peptide compound, FaSSIF 60 (min); for remaining at 2 h, 1 µM: 120 min, read-out: Remaining percentage of peptide compound, FaSSIF 120 (min); for remaining at 4 h, 1 µM: 240 min, read-out: Remaining percentage of peptide compound, FaSSIF 240 (min)
Experimental: as §2
Similarly, the term “Pancreatin-SIF” refers to a solution of simulated intestinal fluid containing pancreatin whereas “SIF-media” refers to a solution of simulated intestinal fluid without pancreatin. Pancreatin-SIF was prepared by dissolving 1 mg Pancreatin (MP Biomedicals) in 10 mL SIF media concentrate (PROSENSE).
as §3
as §4, with “(0.1%” for “(0,1%”

[6] = Buffer pH 1.1 (head; method: 50 mM HCl pH 1.2), 2 h agitation, read-out: Solubility, Buffer pH 1.1
[7] = aqueous buffer, 50 mM phosphate buffer pH 6.5, 2 h agitation, read-out: Solubility, Buffer pH 6.5
[8] = aqueous buffer, 50 mM phosphate buffer pH 7.4, 2 h agitation, read-out: Solubility, Buffer pH 7.4
[9] = 50 mM phosphate buffer pH 6.5 + acetonitrile (3:1), read-out: Chemical stability (relative purity loss), Buffer pH 6.5
[10] = 50 mM phosphate buffer pH 7.4 + acetonitrile (3:1), read-out: Chemical stability (relative purity loss), Buffer pH 7.4
[11] = 50 mm hcl + acetonitrile, Buffer pH 1.1 (head; method: 50 mM HCl pH 1.2 + acetonitrile 3:1), read-out: Chemical stability (relative purity loss), Buffer pH 1.1

solubility at 2 h [1, 6] [µg/mL]	solubility at 2 h [1, 7] [µg/mL]	solubility at 2 h [1, 8] [µg/mL]	degraded at 24 h [2, 9] [%]	degraded at 24 h [2, 10] [%]	degraded at 24 h [2, 11] [%]	remaining at 1 h, 1 µM [3] [%]	remaining at 1 h, 1 µM [5] [%]	remaining at 2 h, 1 µM [5] [%]	remaining at 4 h, 1 µM [5] [%]	Structure (SMILES)	IC50 [4] [nM]
≥ 900	250 (≈ 171 µM)	40 (≈ 27.4 µM)	0	0	0	99	100	100	101	Cc1cccc2c(C[C@@H]3NC(=O)CCCCN(C)CCCCN(C)CCCC[C@@H](C(=O)NCC(=O)NCCc4cccnc4)NC(=O)C(C)(C)NC(=O)[C@H](Cc4ccc5ccccc5c4)NC(=O)[C@H](Cc4ccc(OCCN(C)C)cc4)NC(=O)C4(CCOCC4)NC(=O)[C@H](CC(C)C)NC3=O)cn(C)c12 [compound 49] ([X3]L[Thp]Y(Me2NCH2CH2)[2Nal][Aib][Lys(Me,(CH2)4NMe(CH2)4CO)]G-{NH(2-(3-pyridyl)ethyl)}; lactam N-7)	35.4
≥ 1020	≥ 960	≥ 1020	0	0.4	5.8	95	93	93	81	CN(C)CCOc1ccc(C[C@@H]2NC(=O)C3(CCOCC3)NC(=O)[C@H](CCC(N)=O)NC(=O)[C@H](Cc3c[nH]c4ccccc34)NC(=O)CCCCN(C)CCCCN(C)CCCC[C@@H](C(=O)N[C@@H](CO)C(=O)N[C@@H](Cc3cccnc3)C(=O)N(C)CC(N)=O)NC(=O)C(C)(C)NC(=O)[C@H](Cc3ccc4ccccc4c3)NC2=O)cc1 [compound 41] (WQ[Thp]Y(Me2NCH2CH2)[2Nal][Aib][Lys(Me,(CH2)4NMe(CH2)4CO)]S[3Pal][Sar]-NH2; lactam N-7)	4
≥ 970	≥ 1050	≥ 1220	0	0.7	5.2	71	96	84	75	CN(C)CCOc1ccc(C[C@@H]2NC(=O)C3(CCOCC3)NC(=O)[C@H](CCC(N)=O)NC(=O)[C@H](Cc3c[nH]c4ccccc34)NC(=O)CCCCN(C)CCCCN(C)CCCC[C@@H](C(=O)N[C@@H](CO)C(=O)N[C@@H](Cc3cccnc3)C(=O)N(C)CC(N)=O)NC(=O)C3(CCOCC3)NC(=O)[C@H](Cc3ccc4ccccc4c3)NC2=O)cc1 [compound 43] (WQ[Thp]Y(Me2NCH2CH2)[2Nal][Thp][Lys(Me,(CH2)4NMe(CH2)4CO)]S[3Pal][Sar]-NH2; lactam N-7)	2.02

Second part, the compound before the results:

Structure (SMILES)	solubility at 2 h [1, 6] [µg/mL]	solubility at 2 h [1, 7] [µg/mL]	solubility at 2 h [1, 8] [µg/mL]	degraded at 24 h [2, 9] [%]	degraded at 24 h [2, 10] [%]	degraded at 24 h [2, 11] [%]	remaining at 1 h, 1 µM [3] [%]	remaining at 1 h, 1 µM [5] [%]	remaining at 2 h, 1 µM [5] [%]	remaining at 4 h, 1 µM [5] [%]	IC50 [4] [nM]
Cc1cccc2c(C[C@@H]3NC(=O)CCCCN(C)CCCCN(C)CCCC[C@@H](C(=O)NCC(=O)N[C@@H](Cc4cccnc4)C(=O)N(C)CC(N)=O)NC(=O)C(C)(C)NC(=O)[C@H](Cc4ccc5ccccc5c4)NC(=O)[C@H](Cc4ccc(OCCN(C)C)cc4)NC(=O)C4(CCOCC4)NC(=O)[C@H](CCC(N)=O)NC3=O)c[nH]c12 [compound 28] ([Trp(7-Me)]Q[Thp]Y(Me2NCH2CH2)[2Nal][Aib][Lys(Me,(CH2)4NMe(CH2)4CO)]G[3Pal][Sar]-NH2; lactam N-7)	≥ 1200	≥ 1060	≥ 990	0	0	6.7	101	97	98	98	2.14
CC(=O)NCCCC[C@@H]1NC(=O)[C@H](Cc2c[nH]c3c(C)cccc23)NC(=O)CCCCCCCCCCNC(=O)CC[C@@H](C(=O)N[C@@H](CC(N)=O)C(=O)N[C@@H](Cc2cccnc2)C(=O)N(C)CC(N)=O)NC(=O)C(C)(C)NC(=O)[C@H](Cc2ccc3ccccc3c2)NC(=O)[C@H](Cc2ccc(OCCN(C)C)cc2)NC(=O)C2(CCOCC2)NC1=O [compound 16] ([Aun][Trp(7-Me)]K(Ac)[Thp]Y(Me2NCH2CH2)[2Nal][Aib]EN[3Pal][Sar]-NH2; lactam N-8)	≥ 950	760 (≈ 458 µM)	260 (≈ 157 µM)	0	0.6	3.8	88	84	85	84	0.37
